{"source": "paper PMC5747364", "about": "(Science (New York, N.Y.), 2017)", "biological_target": "T1, SAMTOR (Homo sapiens, UniProt Q1RMZ1)", "T1 sequence (Q1RMZ1 1-405)": "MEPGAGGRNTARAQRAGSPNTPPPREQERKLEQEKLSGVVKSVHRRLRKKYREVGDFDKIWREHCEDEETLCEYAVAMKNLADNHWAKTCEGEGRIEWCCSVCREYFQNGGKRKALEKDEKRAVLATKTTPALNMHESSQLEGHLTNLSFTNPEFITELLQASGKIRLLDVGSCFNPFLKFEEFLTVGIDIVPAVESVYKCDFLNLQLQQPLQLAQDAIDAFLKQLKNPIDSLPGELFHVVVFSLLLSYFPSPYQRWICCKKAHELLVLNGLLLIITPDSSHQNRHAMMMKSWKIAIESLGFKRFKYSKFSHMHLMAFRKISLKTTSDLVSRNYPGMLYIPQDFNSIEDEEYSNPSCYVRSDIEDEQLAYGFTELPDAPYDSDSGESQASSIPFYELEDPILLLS", "assay": "competition binding against [3H]SAM on purified FLAG-SAMTOR", "details": "competitive with [3H]SAM", "data": [{"smiles": "Nc1ncnc2c1ncn2[C@@H]1O[C@H](CSCC[C@H](N)C(=O)O)[C@@H](O)[C@H]1O", "note": "[SAH]", "values": [{"measurement": "Ki", "result": "SAMTOR can also bind S-adenosylhomocysteine (SAH), the demethylated form of SAM"}]}]}
